According to paper PMC10878751, “N-Substituted Phenylhydrazones Kill the Ring Stage of Plasmodium falciparum” (BioMed Research International, 2024):
Where two headings read alike, the source gives them in different places.

Assays:
[1] = test system: DD2 chloroquine-resistance strain; test: SYBR green antimalarial assay, DD2 strain
Method: (§1) The SYBR green and cytotoxicity assay procedure to determine the potency of the phenylhydrazones was according to [16].
(§2) One-milligram (1 mg) powder of each compounds was weighed and transferred into dimethylsulphoxide (DMSO) (1 ml of 0.5% v/v) to yield a stock concentration of 1000 μg/ml. The stock solution was vortexed well to dissolve the compounds and later filtered through 0.2 μm pore filter unit and then stored in a -20°C freezer until use. The stock products were diluted 10-fold to obtain a working solution of 100 μg/ml. This working solution was further serially diluted […] to obtain the concentrations 100 μg/ml, 50 μg/ml, 25 μg/ml, 12.5 μg/ml, 6.25 μg/ml, 3.13 μg/ml, 1.56 μg/ml, 0.78 μg/ml, and 0.39 μg/ml.
(§3) Continuous P. falciparum asexual cultures were maintained in vitro in an atmosphere of 93% N2, 4% CO2, and 3% O2 at 37°C in complete medium (CM) (10.44 g/liter Roswell Park Memorial Institute Medium (RPMI) 1640, 5.94 g/liter N-2-hydroxyethylpiperazine-N-2-ethane sulfonic acid (HEPES), 5 g/liter AlbuMAX II, 50 mg/liter hypoxanthine, and 2.1 g/liter sodium bicarbonate). Parasites were cultured in O+ RBCs and maintained in the incubator with daily media change until a parasitemia of more than 5% ring stages was obtained. The culture was then treated with 5% sorbitol to obtain synchronized ring stage, and parasite growth was monitored for some few days by estimating percentage (%) parasitemia using Giemsa-stained slides and light microscope with 100x magnification until parasitemia of more than 5% was recorded. Parasite suspension of 2% hematocrit with 1% parasitemia was prepared using uninfected blood to make a total of 14 ml in a complete culture medium for the plating. Compound plating and SYBR green assay were according to [16].
(§4) One hundred (100) microliters of each nine dilutions (100 μg/ml, 50 μg/ml, 25 μg/ml, 12.5 μg/ml, 6.25 μg/ml, 3.13 μg/ml, 1.56 μg/ml, 0.78 μg/ml, and 0.39 μg/ml) was plated in duplicate in a 96-well coastal plate. 15 ng/ml of artesunate was serially diluted and plated alongside with the compounds as a standard antimalarial control drug. One hundred of parasite mix with 2% hematocrit and 1% parasitemia were added to each treated well starting from the 2nd well to the 10th well. One hundred microliters of parasite mix without any drug was added to the 11th well as a negative control, and the procedure was repeated for the rest of other extract/compounds. The plates were arranged in a modular chamber and gassed for 5 min with gas mixture of 5% oxygen, 5% carbon dioxide, and 90% nitrogen and then kept at 37°C for 72 h.
(§5) The plates were harvested after 72 h, and the assays were paused by adding 100 μl lysing buffer containing SYBR green to each well and was thoroughly and gently mixed to avoid production of bubbles. The plates were then incubated in the dark for 30-60 minutes before reading the assay using FLUOstar OPTIMA Fluorometer plate reader with control software version 2.20 at 470 nm and 520 nm wavelengths.
(§6) Each compound was tested in triplicate concentration that inhibits asexual Plasmodium falciparum parasite by 50% (IC50) estimated from dose-response curves by nonlinear regression analysis using GraphPad Prism version 7.0 software (GraphPad software, San Diego, CA, USA). Cytotoxicity analysis was carried out using Microsoft Excel Version 2010.

[2] = test system: uninfected red blood cells; test: MTT cytotoxicity assay; conditions: uninfected red blood cells, 72 h, MTT
Method: as §1
(§7) Following that, 100 μl of uninfected red blood cells was put to each well. Compound, culture medium, and uninfected red blood cells were subtracted from the optical densities by running control experiments for each parameter independently alongside the main experiment. The plates were then incubated for 72 hours at 37°C in a humidified incubator with 5% O2 and CO2 before 20 μl of 2.5 mg/ml MTT (in phosphate-buffered saline) solution was added to each well, and the plate was incubated for another 2 hours. After incubation, aliquots of culture medium (150 μl) were taken and discarded from each well, and 200 μl of Triton X-100 in acidified isopropanol was added to each well to dissolve any formazan produced. The plates were then maintained at room temperature in the dark for 24 hours before the optical densities of the wells were measured using a plate reader at 570 nm. […] The CC50 values were compared to the standard values.

[3] = test system: 3D7 chloroquine-sensitive strain of Plasmodium falciparum; test: SYBR green antimalarial assay, 3D7 strain
Method: as §1, §2, §3, §4, §5, §6

[4] = MTT cytotoxicity assay
Method: as §1, §7

[5] = Plasmodium falciparum, DD2, 72 h, read-out: DD2 IC50
[6] = Plasmodium falciparum, 3D7, 72 h, read-out: 3D7 IC50
[7] = Plasmodium falciparum, DD2, read-out: pIC50 Dd2 (converted)
[8] = Plasmodium falciparum, 3D7, read-out: pIC50 3D7 (converted)

For “1-Benzylidene-2-(2,4-dinitrophenyl)hydrazine [PHN5]”, the “pIC50 Dd2” value ([1]; calculated from in vitro IC50s, DD2 CR strain) was 4.71, the IC50 ([1]; read-out: DD2 IC50, DD2 chloroquine-resistant strain, ring stage, 72 h, SYBR green) was 6.591 ± 0.06 µM and the CC50 [2] was 112 µM. For the same compound, the “pIC50 3D7” value ([3]; calculated from in vitro IC50s, 3D7 CS strain) was 4.25 and the IC50 ([3]; read-out: 3D7 IC50, 3D7 chloroquine-sensitive strain, ring stage, 72 h, SYBR green) was 19.02 ± 0.02 µM.

In the case of `C[C@H]1[C@H](OC(=O)CCC(=O)O)O[C@@H]2O[C@@]3(C)CC[C@H]4[C@H](C)CC[C@@H]1[C@@]24OO3` [Artesunate, reference compound], the “SI = CC50/IC50 for DD2” value [1] is reported as over 1000, the IC50 [1, 5] is reported as 0.005063 ± 2.3e-05 µM and the CC50 at 72 h ([4]; uninfected red blood cells) is reported as 84.7 µM. For the same compound, the “SI = CC50/IC50 for 3D7” value [3] was over 1000 and the IC50 [3, 6] was 0.004688 ± 1.7e-05 µM.

For `O=[N+]([O-])c1ccc(NN=C(c2ccccc2)c2ccccc2)c([N+](=O)[O-])c1` [PHN1, (2,4-Dinitrophenyl)-2-(diphenylmethylene) Hydrazine], the IC50 [1, 5] was 34.89 ± 0.17 µM, the IC50 [1, 7] was 89.1 µM and the “SI = CC50/IC50 for DD2” value ([1]; selectivity index) was 3. The CC50 at 72 h [4] was 106 µM, the IC50 [3, 6] was 31 ± 0.37 µM and the “SI = CC50/IC50 for 3D7” value ([3]; selectivity index) was 3.

For `O=[N+]([O-])c1ccc(NN=Cc2ccc(O)cc2O)c([N+](=O)[O-])c1` [PHN2, 4-(2-(2,4-Dinitrophenylhydrazono) Methyl) Benzene-1,3-diol], the IC50 [1, 5] was 16.2 ± 0.17 µM, the IC50 [1, 7] was 40.7 µM and the “SI = CC50/IC50 for DD2” value ([1]; selectivity index) was 7. It also gave a CC50 at 72 h [4] of 119 µM, an IC50 [3, 6] of 14.12 ± 0.04 µM and an IC50 [3, 8] of 269 µM. The “SI = CC50/IC50 for 3D7” value ([3]; selectivity index) was 8.

In the case of `COc1cc(C=NNc2ccc([N+](=O)[O-])cc2[N+](=O)[O-])ccc1O` [PHN3], the IC50 [1, 5] is reported as 2.415 ± 0.01 µM, the IC50 [1, 7] is reported as 6.61 µM and the “SI = CC50/IC50 for DD2” value ([1]; selectivity index) is reported as 55. For the same compound, the CC50 at 72 h [4] was 132 µM, the IC50 [3, 6] was 6.6 ± 0.03 µM and the IC50 [3, 8] was 18.2 µM. For the same compound, the “SI = CC50/IC50 for 3D7” value ([3]; selectivity index) was 20.

In the case of `O=[N+]([O-])c1ccc(NN=Cc2cccc(O)c2)c([N+](=O)[O-])c1` [PHN6, 3-(2-2(4-Dinitrophenyl) Hydrazono) Methylphenol], the IC50 [1, 5] is reported as 5.12 ± 0.07 µM, the IC50 [1, 7] is reported as 17 µM and the “SI = CC50/IC50 for DD2” value ([1]; selectivity index) is reported as 19. For the same compound, the CC50 at 72 h [4] was 101 µM, the IC50 [3, 6] was 1.29 ± 0.05 µM and the IC50 [3, 8] was 4.27 µM. The “SI = CC50/IC50 for 3D7” value ([3]; selectivity index) was 79.
